Laboratory results taken from patent publication US20240294519A1, “PYRROLO[2,3-b]PYRIDINE PGDH INHIBITORS AND METHODS OF MAKING AND USING” (EPIRIUM BIO INC., priority 2021, published 2024).
Values joined by “and” are separate entries in the source; they are usually repeats but may differ in a detail not shown here. Identical values can stand only once.

What was measured:
15-PGDH/HPGD = biological target: T1, 15-PGDH/HPGD (Homo sapiens, UniProt P15428); assay: hPGDH inhibitor screening biochemical assay; settings: 10 nM enzyme, 15 μM PGE2, 0.25 mM NAD, fluorescence ex/em 340/485 nm
T1 construct: purchased R&D System 5660-DH
T1 sequence (P15428 1-266): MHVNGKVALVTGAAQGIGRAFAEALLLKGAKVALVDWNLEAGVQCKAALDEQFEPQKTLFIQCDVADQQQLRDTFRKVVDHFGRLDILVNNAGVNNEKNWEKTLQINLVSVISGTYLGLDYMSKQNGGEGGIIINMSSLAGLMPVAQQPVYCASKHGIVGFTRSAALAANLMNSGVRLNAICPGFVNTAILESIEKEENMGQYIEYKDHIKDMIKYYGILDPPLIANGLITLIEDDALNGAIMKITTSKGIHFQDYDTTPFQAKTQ
Summary of the method: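 Recombinant human 15-PGDH (10 nM) was preincubated with compound for 10 min at 37° C in 50 mM Tris-HCl pH 7.5 with 0.01% Tween 20. Reaction with 15 μM PGE2 and 0.25 mM NAD+ ran 10 min at room temperature, read by fluorescence at ex/em 340/485 nm. IC50 was derived from 10-point curves, relative to 1% DMSO.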

15-PGDH = biological target: T2, 15-PGDH (Homo sapiens, UniProt P15428); assay: A549 cell based assay: PGE2 in supernatant after IL-1β (HTRF); settings: A549 cells, fold induction of PGE2, IL-1β plus test article versus IL-1β only
T2 construct: 15-PGDH is highly expressed in resting human lung adenocarcinoma cells (A549); endogenous in cells; host or cells: A549
T2 sequence (P15428 1-266): T1 sequence (P15428 1-266)
Experimental: Cell Based Assay: 15-PGDH is highly expressed in resting human lung adenocarcinoma cells (A549) (Tong et al., 2006), and this cell line was used to assess 15-PGDH inhibition by MF-300Na in vitro.
In this assay, A549 cells are treated with interleukin (IL) 1β, which induces the expression of cycloxygenase-2 and the synthesis of PGE2 (Tong et al., 2006). In the studies evaluating test articles, thirty thousand A549 cells were seeded in 100 μL F12K completed media and incubated for 24 hours at 37° C. with 5% CO2 before being serum-starved for 24 hours. On the day of the experiment, buffer was changed to complete medium, and cells were incubated for 30 minutes with compounds prior to the addition of IL-1β (final concentration of 0.1-0.25 ng/mL) overnight at 37° C. with 5% CO2. Each concentration was run in triplicate. […] The PGE2 in the supernatant was detected and quantified using a Cisbio HTRF technology (Homogeneous Time-Resolved Fluorescence) kit (62P2APEG-62P2APEH) according to the manufacturer's recommendations, quantifying the fold induction of PGE2 of cells treated with IL-1β plus test article, versus treatment with IL-1β only.

IC50 (15-PGDH/HPGD) | PGE2 - HTRF over IL-β induction at 0.001 μM (15-PGDH) | PGE2 - HTRF over IL-β induction at 0.01 μM (15-PGDH) | PGE2 - HTRF over IL-β induction at 0.1 μM (15-PGDH) | PGE2 - HTRF over IL-β induction at 1 μM (15-PGDH) | SMILES
< 100 nM | 3.59 | 4.44 | 4.8 | 4.34 | CCC1CCCN(C(=O)c2cnc3c(ccn3-c3cncc(NC(=O)OC)c3)c2)C1 (stereo in doubt) [Compound B-70, methyl(S)-(5-(5-(3-ethylpiperidine-1-carbonyl)-1H-pyrrolo[2,3-b]pyridin-1-yl)pyridin-3-yl)carbamate]
100 to 1000 nM | 0.51 | 1.08 | 2.21 | 1.92 | O=C(c1cnc2c(ccn2-c2ccc(N3CCOC3=O)nc2)c1)N1CCC[C@@H](C(F)(F)F)C1 [Compound B-81]
< 100 nM | 1.4 | 2.64 | 2.84 | 4.39 | CCC1CCCN(C(=O)c2cnc3c(ccn3-c3cncc(NC(=O)OC)c3)c2)C1 (centres unmarked) [Compound B-83]
< 100 nM | 1.94 | 3.38 | 4.02 | 5.76 | COC(=O)Nc1cncc(-n2ccc3cc(C(=O)N4CCCC(C(F)(F)F)C4)cnc32)c1 (centres unmarked) [Compound B-84]
< 100 nM | 6.05 | 3.06 | 8.74 | 10.7 | CCC1CCCN(C(=O)c2cnc3c(ccn3-c3ccc(N4CCOC4=O)nc3)c2)C1 (centres unmarked) [Compound B-113]

Continued, compound first:

SMILES | IC50 (15-PGDH/HPGD) | PGE2 - HTRF over IL-β induction at 0.001 μM (15-PGDH) | PGE2 - HTRF over IL-β induction at 0.01 μM (15-PGDH) | PGE2 - HTRF over IL-β induction at 0.1 μM (15-PGDH) | PGE2 - HTRF over IL-β induction at 1 μM (15-PGDH)
Cn1cc(C(=O)Nc2cncc(-n3ccc4cc(C(=O)N5CCC(F)(F)CC5)cnc43)c2)cn1 [Compound B-92] | < 100 nM |  | 2.91 and 2.33 | 4.01 and 3.89 | 3.56 and 3.92
O=C(Nc1cncc(-n2ccc3cc(C(=O)N4CCC(F)(F)CC4)cnc32)c1)C1CCC1 [Compound B-236] | < 100 nM | 1.63 | 3.57 | 6.46 | 8.32
O=C(Nc1cncc(-n2ccc3cc(C(=O)N4CCC(F)(F)CC4)cnc32)c1)C1CCCC1 [Compound B-234] | < 100 nM | 0.70 | 4.01 | 4.06 | 3.42
O=C(c1cnc2c(ccn2-c2ccc(-c3nnc(C4CC4)[nH]3)cc2)c1)N1CCC(F)(F)CC1 [Compound B-72] | < 100 nM | 2.17 | 3.03 | 3.96 | 3.96
